Laboratory results reported in patent US9656962B2, “Ring-contracted morphinans and the use thereof” (Purdue Pharma L.P., priority 2013, dated 2017).

What was measured:
[1] = molecular target: recombinant human kappa opioid receptor (κ) (Homo sapiens (Human), UniProt P41145); test: κ-opioid receptor radioligand binding assay ([3H]-U69,593); details: binding affinity
μ-opioid receptor [2] = molecular target: T1, μ-opioid receptor (Homo sapiens (Human), UniProt P35372); test: μ-opioid receptor [35S]GTPγS functional assay, HEK-293 or CHO cells (Table 4); assay type: biochemical
Method in brief: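 Membranes from HEK-293, CHO or U-2 OS cells (or commercial) expressing recombinant μ receptor; 0.20 nM [35S]GTPγS, 3 mM GDP, saponin, in 100 mM NaCl/10 mM MgCl2/20 mM HEPES pH 7.4.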

δ-opioid receptor = δ-opioid receptor (Homo sapiens (Human), UniProt P41143); test: δ-opioid receptor [35S]GTPγS functional assay (Table 4); assay type: biochemical
δ-opioid receptor, sequence (P41143 whole entry, looked up): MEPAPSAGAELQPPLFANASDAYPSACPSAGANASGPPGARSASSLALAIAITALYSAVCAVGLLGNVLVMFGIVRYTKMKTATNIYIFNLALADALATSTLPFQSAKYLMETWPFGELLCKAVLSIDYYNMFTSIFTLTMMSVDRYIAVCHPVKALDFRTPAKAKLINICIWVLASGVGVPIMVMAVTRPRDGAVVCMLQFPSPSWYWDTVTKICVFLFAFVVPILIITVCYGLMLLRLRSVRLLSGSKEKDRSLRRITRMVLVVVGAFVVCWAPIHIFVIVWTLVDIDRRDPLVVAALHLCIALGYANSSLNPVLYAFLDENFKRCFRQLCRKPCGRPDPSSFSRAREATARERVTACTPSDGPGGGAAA
Procedure: δ-Opioid Receptor Functional Assay Procedures: Functional [^35S]GTPγS binding assays were conducted as follows. δ opioid receptor membrane solution was prepared by sequentially adding final concentrations of 0.026 μg/μl δ membrane protein (Perkin Elmer, Shelton, Conn.), 10 μg/mL saponin, 3 μM GDP and 0.20 nM [^35S]GTPγS to binding buffer (100 mM NaCl, 10 mM MgCl2, 20 mM HEPES, pH 7.4) on ice. The prepared membrane solution (190 μl/well) was transferred to 96-shallow well polypropylene plates containing 10 μl of 20× concentrated stock solutions of agonist prepared in DMSO. Plates were incubated for 30 min at a temperature of about 25° C. with shaking Reactions were terminated by rapid filtration onto 96-well Unifilter GF/B filter plates (Perkin Elmer, Shelton, Conn.) using a 96-well tissue harvester (Packard) and followed by three filtration washes with 200 μl ice-cold binding buffer (10 mM NaH2PO4, 10 mM Na2HPO4, pH 7.4). Filter plates were subsequently dried at 50° C. for 1-2 hours. Fifty μl/well scintillation cocktail (Perkin Elmer, Shelton, Conn.) was added and plates were counted in a Packard Top-count for 1 min/well.
δ GTP Emax (%) is the maximal effect elicited by a compound relative to the effect elicited by met-enkephalin.

μ-opioid receptor [3] = molecular target: T1, μ-opioid receptor; test: μ-opioid receptor radioligand binding assay ([3H]-diprenorphine); details: binding affinity
Procedure: μ-Opioid Receptor Binding Assay Procedures: Radioligand dose-displacement binding assays for μ-opioid receptors used 0.3 nM [^3H]-diprenorphine (Perkin Elmer, Shelton, Conn.), with […] membrane protein/well in a final volume of 500 μl binding buffer (10 mM MgCl2, 1 mM EDTA, 5% DMSO, 50 mM HEPES, pH 7.4). Reactions were carried out in the absence or presence of increasing concentrations of unlabeled naloxone. All reactions were conducted in 96-deep well polypropylene plates for 2 hours at room temperature. Binding reactions were terminated by rapid filtration onto 96-well Unifilter GF/C filter plates (Perkin Elmer, Shelton, Conn.), presoaked in 0.5% polyethylenimine using a 96-well tissue harvester (Perkin Elmer, Shelton, Conn.) followed by performing three filtration washes with 500 μl of ice-cold binding buffer. Filter plates were subsequently dried at 50° C. for 2-3 hours. BetaScint scintillation cocktail (Perkin Elmer, Shelton, Conn.) was added (50 μl/well), and plates were counted using a Packard Top-Count for 1 min/well. The data were analyzed using the one-site competition curve fitting functions in GraphPad PRISM™ v. 3.0 or higher (San Diego, Calif.), or an in-house function for one-site competition curve-fitting.

Question: Which Ki [1] does the source give for `NC(=O)[C@@H]1C[C@]23CCN(CC4CC4)[C@H](Cc4ccc(O)cc42)[C@]3(O)C1` [Compound 31, (2R,3aS,4R,9bS)-12-(cyclopropylmethyl)-3a,8-dihydroxy-1,2,3,3a,4,5-hexahydro-4,9b-(epiminoethano)cyclopenta-[a]naphthalene-2-carboxamide] here?
Answer: 0.84 ± 0.26 nM

Question: What about the Emax (μ-opioid receptor [2]; relative to DAMGO) of the same compound?
Answer: 1%

Question: And the EC50 (μ-opioid receptor [2]; μ GTP, bound given in μM)?
Answer: > 20 µM

Question: And the Emax (δ-opioid receptor; relative to met-enkephalin)?
Answer: 32 ± 3.49%

Question: And the EC50 (δ-opioid receptor; δ GTP)?
Answer: 75.5 ± 13.6 nM

Question: What about the Ki (μ-opioid receptor [3]) of the same compound?
Answer: 10.2 ± 3.58 nM
